# Source: patent US20180361032A1, “IMPLANTABLE ELECTROSPUN PATCHES FOR SITE-DIRECTED DRUG DELIVERY” (The Methodist Hospital, priority 2016, published 2018)
# System: inflammation induced by the implant
# Assay: Expression of inflammation-related genes in sciatic nerve and surrounding muscle tissue after implant
# Assay type: in vivo, rodent
# Conditions: release of bupivacaine from the implant
# Excerpt: FIG. 13A, FIG. 13B, FIG. 13C, FIG. 13D, and FIG. 13E show the expression of genes related to inflammation in sciatic nerve tissue: TNF-α (FIG. 13A); IL-1β (FIG. 13B); IL-6 (FIG. 13C); PTGS2 (COX-2) (FIG. 13D); and NOS2 (FIG. 13E); respectively; FIG. 14A, FIG. 14B, FIG. 14C, FIG. 14D, and FIG. 14E show the expression of genes related to inflammation in surrounding muscle tissue: COX-2 expression (FIG. 14A); IL-6 expression (FIG. 14B); TNF-α expression (FIG. 14C); IL-1β expression (FIG. 14D); and iNOS expression (FIG. 14E);
structure (smiles),measurement,value
CCCCN1CCCCC1C(=O)Nc1c(C)cccc1C (stereo not shown) [bupivacaine],inflammation induced by the implant,decreased the inflammation induced by the implant
